The kinase profiling compilation of Christmann-Franck et al. (2016)
Values belong to the compound of their own block, whether it stands above or below them.

Tests used:
Experiment in all cases: radiometric filter-binding kinase assay
[1] = target: MAPK11 (human) (UniProt Q15759)
[2] = target: PAK6 (human) (UniProt Q9NQU5)
[3] = target: ABL1 (human) (UniProt P00519)
[4] = target: PRKCG (human) (UniProt P05129)
[5] = target: PTK6 (human) (UniProt Q13882)
[6] = target: STK16 (human) (UniProt O75716)
[7] = target: STK33 (human) (UniProt Q9BYT3)
[8] = target: TEK (human) (UniProt Q02763)
[9] = target: ZAP70 (human) (UniProt P43403)

PAK6 (human), sequence (Q9NQU5 whole entry, looked up): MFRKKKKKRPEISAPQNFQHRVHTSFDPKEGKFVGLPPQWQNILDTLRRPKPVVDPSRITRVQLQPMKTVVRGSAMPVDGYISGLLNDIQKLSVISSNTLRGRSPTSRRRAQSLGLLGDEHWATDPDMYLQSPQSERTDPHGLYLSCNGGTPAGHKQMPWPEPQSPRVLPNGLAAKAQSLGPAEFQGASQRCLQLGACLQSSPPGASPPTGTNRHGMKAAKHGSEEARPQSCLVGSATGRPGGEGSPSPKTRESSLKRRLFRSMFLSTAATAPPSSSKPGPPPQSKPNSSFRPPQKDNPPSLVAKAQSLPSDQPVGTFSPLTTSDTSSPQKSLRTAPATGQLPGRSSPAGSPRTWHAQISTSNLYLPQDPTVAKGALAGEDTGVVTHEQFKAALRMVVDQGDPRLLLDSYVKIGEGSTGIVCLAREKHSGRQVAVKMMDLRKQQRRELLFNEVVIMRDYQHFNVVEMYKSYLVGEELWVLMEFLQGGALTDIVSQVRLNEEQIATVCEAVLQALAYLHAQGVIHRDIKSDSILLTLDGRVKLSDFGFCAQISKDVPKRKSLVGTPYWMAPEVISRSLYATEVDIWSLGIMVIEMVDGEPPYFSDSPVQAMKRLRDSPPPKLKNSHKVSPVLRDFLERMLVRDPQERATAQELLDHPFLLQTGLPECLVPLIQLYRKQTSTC
MAPK11 (human), sequence (Q15759 whole entry, looked up): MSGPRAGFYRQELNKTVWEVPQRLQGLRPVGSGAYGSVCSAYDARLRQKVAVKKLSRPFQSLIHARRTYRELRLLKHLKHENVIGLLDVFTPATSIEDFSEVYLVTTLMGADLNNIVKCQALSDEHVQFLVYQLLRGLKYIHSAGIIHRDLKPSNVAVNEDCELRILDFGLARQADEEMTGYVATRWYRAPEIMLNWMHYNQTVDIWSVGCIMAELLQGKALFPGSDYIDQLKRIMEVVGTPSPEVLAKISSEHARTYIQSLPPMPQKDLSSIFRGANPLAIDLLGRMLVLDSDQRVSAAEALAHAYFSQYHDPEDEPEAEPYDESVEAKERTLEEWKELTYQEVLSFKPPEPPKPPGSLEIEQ
STK33 (human), sequence (Q9BYT3 whole entry, looked up): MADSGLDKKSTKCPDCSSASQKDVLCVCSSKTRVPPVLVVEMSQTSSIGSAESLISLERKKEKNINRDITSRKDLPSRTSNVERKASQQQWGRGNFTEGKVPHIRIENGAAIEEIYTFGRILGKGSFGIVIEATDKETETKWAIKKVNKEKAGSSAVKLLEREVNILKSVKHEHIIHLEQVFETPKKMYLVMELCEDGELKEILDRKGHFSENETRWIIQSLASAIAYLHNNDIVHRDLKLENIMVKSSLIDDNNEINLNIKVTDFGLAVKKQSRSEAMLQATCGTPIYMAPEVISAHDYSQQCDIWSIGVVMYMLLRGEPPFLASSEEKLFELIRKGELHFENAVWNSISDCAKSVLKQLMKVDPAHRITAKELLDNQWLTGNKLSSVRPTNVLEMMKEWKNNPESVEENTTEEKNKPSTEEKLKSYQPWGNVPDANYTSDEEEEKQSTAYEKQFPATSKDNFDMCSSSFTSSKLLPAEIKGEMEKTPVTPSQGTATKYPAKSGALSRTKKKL
TEK (human), sequence (Q02763 whole entry, looked up): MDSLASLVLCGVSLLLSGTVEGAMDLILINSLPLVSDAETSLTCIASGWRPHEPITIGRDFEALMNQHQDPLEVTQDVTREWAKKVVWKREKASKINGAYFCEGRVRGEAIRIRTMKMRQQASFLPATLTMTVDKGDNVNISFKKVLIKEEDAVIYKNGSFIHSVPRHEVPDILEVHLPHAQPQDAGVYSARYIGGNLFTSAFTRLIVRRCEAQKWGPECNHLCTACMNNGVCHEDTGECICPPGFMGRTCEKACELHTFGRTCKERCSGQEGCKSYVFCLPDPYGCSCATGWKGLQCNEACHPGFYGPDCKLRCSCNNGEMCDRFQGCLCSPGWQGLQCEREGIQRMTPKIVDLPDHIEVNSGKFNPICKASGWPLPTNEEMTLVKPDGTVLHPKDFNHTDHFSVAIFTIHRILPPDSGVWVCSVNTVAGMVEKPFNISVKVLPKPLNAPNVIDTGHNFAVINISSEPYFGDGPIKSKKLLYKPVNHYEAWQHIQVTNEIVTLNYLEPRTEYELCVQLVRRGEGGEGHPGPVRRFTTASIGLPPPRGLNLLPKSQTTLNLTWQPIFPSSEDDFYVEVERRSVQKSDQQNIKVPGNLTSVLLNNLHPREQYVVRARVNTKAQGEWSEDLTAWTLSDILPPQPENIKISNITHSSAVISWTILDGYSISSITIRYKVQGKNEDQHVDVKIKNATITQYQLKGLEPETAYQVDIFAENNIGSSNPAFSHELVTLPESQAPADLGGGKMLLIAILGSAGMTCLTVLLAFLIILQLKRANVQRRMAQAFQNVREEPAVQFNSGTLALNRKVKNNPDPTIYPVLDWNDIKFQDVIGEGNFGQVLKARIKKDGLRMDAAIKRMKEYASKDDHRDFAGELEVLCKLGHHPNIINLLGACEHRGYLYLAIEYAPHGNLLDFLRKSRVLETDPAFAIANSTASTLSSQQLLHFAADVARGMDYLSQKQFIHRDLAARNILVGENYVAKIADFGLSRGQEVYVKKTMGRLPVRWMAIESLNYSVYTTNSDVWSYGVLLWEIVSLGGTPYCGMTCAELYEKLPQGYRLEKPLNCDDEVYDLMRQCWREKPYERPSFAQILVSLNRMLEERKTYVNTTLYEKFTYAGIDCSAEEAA
STK16 (human), sequence (O75716 whole entry, looked up): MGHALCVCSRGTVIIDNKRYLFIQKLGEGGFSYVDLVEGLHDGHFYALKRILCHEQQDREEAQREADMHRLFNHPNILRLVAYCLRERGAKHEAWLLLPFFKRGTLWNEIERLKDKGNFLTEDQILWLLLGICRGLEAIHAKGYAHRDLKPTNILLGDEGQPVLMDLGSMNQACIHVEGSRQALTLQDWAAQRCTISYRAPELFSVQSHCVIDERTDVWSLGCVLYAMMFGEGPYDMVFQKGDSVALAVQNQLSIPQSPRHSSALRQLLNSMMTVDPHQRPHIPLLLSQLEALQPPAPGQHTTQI
ABL1 (human), sequence (P00519 whole entry, looked up): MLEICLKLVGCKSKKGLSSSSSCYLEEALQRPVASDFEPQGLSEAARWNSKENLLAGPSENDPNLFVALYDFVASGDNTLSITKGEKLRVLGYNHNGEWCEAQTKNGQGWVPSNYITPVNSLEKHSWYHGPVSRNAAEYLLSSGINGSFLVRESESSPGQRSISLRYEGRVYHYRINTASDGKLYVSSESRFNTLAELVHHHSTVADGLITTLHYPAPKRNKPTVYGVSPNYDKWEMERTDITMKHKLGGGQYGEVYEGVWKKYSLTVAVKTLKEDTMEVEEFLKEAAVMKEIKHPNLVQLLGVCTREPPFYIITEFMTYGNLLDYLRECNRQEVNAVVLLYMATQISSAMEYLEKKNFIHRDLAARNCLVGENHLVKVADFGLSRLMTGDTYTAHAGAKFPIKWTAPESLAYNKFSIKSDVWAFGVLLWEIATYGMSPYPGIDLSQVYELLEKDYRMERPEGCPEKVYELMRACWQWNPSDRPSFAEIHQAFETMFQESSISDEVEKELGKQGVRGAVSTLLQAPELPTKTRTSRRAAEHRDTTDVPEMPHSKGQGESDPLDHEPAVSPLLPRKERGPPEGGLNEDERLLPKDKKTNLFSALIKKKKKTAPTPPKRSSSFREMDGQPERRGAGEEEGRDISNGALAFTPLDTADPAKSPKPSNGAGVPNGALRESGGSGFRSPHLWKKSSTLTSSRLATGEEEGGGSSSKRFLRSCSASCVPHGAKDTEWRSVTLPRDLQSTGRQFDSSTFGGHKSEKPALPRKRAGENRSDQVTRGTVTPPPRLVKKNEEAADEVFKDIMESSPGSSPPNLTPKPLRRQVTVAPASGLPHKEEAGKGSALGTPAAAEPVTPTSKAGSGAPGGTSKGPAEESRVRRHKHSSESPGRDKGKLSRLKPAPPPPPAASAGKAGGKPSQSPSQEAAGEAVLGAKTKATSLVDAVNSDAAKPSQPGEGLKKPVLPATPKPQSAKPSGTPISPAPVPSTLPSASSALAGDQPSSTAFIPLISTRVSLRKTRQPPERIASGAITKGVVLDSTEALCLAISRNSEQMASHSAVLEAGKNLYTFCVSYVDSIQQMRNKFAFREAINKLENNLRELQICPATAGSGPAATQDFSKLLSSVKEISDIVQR

Structure (SMILES): NC(=O)Nc1ccc2c(c1)/C(=C/c1cc(-c3cccnc3)c[nH]1)C(=O)N2
residual activity ([1]; compound 0.1 µM): 103%
residual activity ([1]; compound 1.0 µM): 80%
residual activity ([1]; compound 10.0 µM): 49%
residual activity ([2]; compound 0.1 µM): 86%
residual activity ([2]; compound 1.0 µM): 77%
residual activity ([2]; compound 10.0 µM): 38%

Structure (SMILES): Cc1ccc2c(c1)C(=O)[C@@]1(O)CCN(c3ccccc3)C1=N2
residual activity ([1]; compound 10.0 µM): 82%
residual activity ([1]; compound 100.0 µM): 71%
residual activity ([2]; compound 10.0 µM): 83%

Structure (SMILES): O=c1c(O)c(-c2ccc(O)c(O)c2)oc2cc(O)c(O)c(O)c12
residual activity ([1]; compound 1.0 µM): 101%
residual activity ([1]; compound 10.0 µM): 90%
residual activity ([2]; compound 1.0 µM): 58%
residual activity ([2]; compound 10.0 µM): 60%

Structure (SMILES): COc1cc(O)c2c(c1)/C=C/C[C@H](O)[C@H](O)C(=O)/C=C\C[C@H](C)OC2=O
residual activity ([3]; compound 0.1 µM): 108%
residual activity ([3]; compound 1.0 µM): 71%
residual activity ([1]; compound 0.1 µM): 90%
residual activity ([1]; compound 1.0 µM): 72%
residual activity ([2]; compound 0.1 µM): 100%
residual activity ([2]; compound 1.0 µM): 87%
residual activity ([4]; compound 0.1 µM): 87%
residual activity ([4]; compound 1.0 µM): 87%
residual activity ([5]; compound 0.1 µM): 65%
residual activity ([5]; compound 1.0 µM): 25%
residual activity ([6]; compound 0.1 µM): 103%
residual activity ([6]; compound 1.0 µM): 101%
residual activity ([7]; compound 0.1 µM): 120%
residual activity ([7]; compound 1.0 µM): 85%
residual activity ([8]; compound 0.1 µM): 103%
residual activity ([8]; compound 1.0 µM): 93%
residual activity ([9]; compound 0.1 µM): 110%
residual activity ([9]; compound 1.0 µM): 96%

Structure (SMILES): C[C@H]1CCCC(=O)CCC/C=C/c2cc(O)cc(O)c2C(=O)O1
residual activity ([1]; compound 1.0 µM): 108%
residual activity ([1]; compound 10.0 µM): 101%
residual activity ([2]; compound 1.0 µM): 99%
residual activity ([2]; compound 10.0 µM): 94%

Structure (SMILES): CN1C(=O)[C@@H](Cc2c[nH]c3ccccc23)NC1=S
residual activity ([1]; compound 1.0 µM): 91%
residual activity ([1]; compound 10.0 µM): 88%
residual activity ([2]; compound 1.0 µM): 93%
residual activity ([2]; compound 10.0 µM): 99%

Structure (SMILES): Oc1ccc2ccccc2c1SSc1c(O)ccc2ccccc12
residual activity ([1]; compound 1.0 µM): 114%
residual activity ([1]; compound 5.0 µM): 112%
residual activity ([1]; compound 10.0 µM): 117%
residual activity ([2]; compound 1.0 µM): 86%
residual activity ([2]; compound 5.0 µM): 45%
residual activity ([2]; compound 10.0 µM): 101%

Second part, the compound after the results:

residual activity ([1]; compound 1.0 µM): 113%
residual activity ([1]; compound 10.0 µM): 109%
residual activity ([2]; compound 1.0 µM): 99%
residual activity ([2]; compound 10.0 µM): 99%
Structure (SMILES): O=C(O)c1cc(N=Nc2ccc(S(=O)(=O)Nc3ccccn3)cc2)ccc1O

residual activity ([1]; compound 0.1 µM): 107%
residual activity ([1]; compound 1.0 µM): 104%
residual activity ([2]; compound 0.1 µM): 97%
residual activity ([2]; compound 1.0 µM): 101%
Structure (SMILES): Cn1c(=O)c2c(ncn2C)n(C)c1=O

residual activity ([1]; compound 0.1 µM): 109%
residual activity ([1]; compound 1.0 µM): 112%
residual activity ([1]; compound 10.0 µM): 71%
residual activity ([2]; compound 0.1 µM): 102%
residual activity ([2]; compound 1.0 µM): 103%
residual activity ([2]; compound 10.0 µM): 61%
Structure (SMILES): O=C(O)c1ccc(-c2c[nH]c3ncc(-c4ccccc4)cc23)cc1C1CCCC1

residual activity ([1]; compound 1.0 µM): 103%
residual activity ([2]; compound 1.0 µM): 95%
residual activity ([2]; compound 10.0 µM): 67%
Structure (SMILES): COc1cc2ncn(-c3cc(OCc4ccccc4S(C)(=O)=O)c(C#N)s3)c2cc1OC

residual activity ([1]; compound 0.1 µM): 99%
residual activity ([1]; compound 1.0 µM): 77%
residual activity ([1]; compound 10.0 µM): 76%
residual activity ([2]; compound 0.1 µM): 85%
residual activity ([2]; compound 1.0 µM): 100%
residual activity ([2]; compound 10.0 µM): 91%
Structure (SMILES): NC1(c2ccc(-c3nc4ccn5c(=O)[nH]nc5c4cc3-c3ccccc3)cc2)CCC1

residual activity ([3]; compound 0.1 µM): 43%
residual activity ([3]; compound 1.0 µM): 6%
residual activity ([3]; compound 10.0 µM): 4%
residual activity ([1]; compound 1.0 µM): 104%
residual activity ([1]; compound 10.0 µM): 96%
residual activity ([2]; compound 0.1 µM): 108%
residual activity ([2]; compound 1.0 µM): 107%
residual activity ([2]; compound 10.0 µM): 100%
residual activity ([4]; compound 0.1 µM): 99%
residual activity ([4]; compound 1.0 µM): 97%
residual activity ([4]; compound 10.0 µM): 92%
residual activity ([5]; compound 0.1 µM): 78%
residual activity ([5]; compound 1.0 µM): 21%
residual activity ([5]; compound 10.0 µM): 5%
residual activity ([6]; compound 0.1 µM): 97%
residual activity ([6]; compound 1.0 µM): 98%
residual activity ([6]; compound 10.0 µM): 84%
residual activity ([7]; compound 0.1 µM): 81%
residual activity ([7]; compound 1.0 µM): 44%
residual activity ([7]; compound 10.0 µM): 11%
residual activity ([8]; compound 0.1 µM): 102%
residual activity ([8]; compound 1.0 µM): 86%
residual activity ([8]; compound 10.0 µM): 30%
residual activity ([9]; compound 0.1 µM): 86%
residual activity ([9]; compound 1.0 µM): 69%
residual activity ([9]; compound 10.0 µM): 101%
Structure (SMILES): c1ccc2c(-c3cnn4cc(-c5ccc(N6CCNCC6)cc5)cnc34)ccnc2c1

residual activity ([1]; compound 1.0 µM): 94%
residual activity ([1]; compound 10.0 µM): 95%
residual activity ([2]; compound 1.0 µM): 87%
residual activity ([2]; compound 10.0 µM): 98%
Structure (SMILES): O=C1NC(=S)N[C@@H]1Cc1c[nH]c2ccccc12

residual activity ([1]; compound 1.0 µM): 95%
residual activity ([1]; compound 10.0 µM): 98%
residual activity ([2]; compound 1.0 µM): 94%
residual activity ([2]; compound 10.0 µM): 91%
Structure (SMILES): NS(=O)(=O)OC[C@@H]1C[C@@H](n2ccc3c(N[C@H]4CCc5ccccc54)ncnc32)C[C@@H]1O

residual activity ([1]; compound 0.1 µM): 96%
residual activity ([1]; compound 1.0 µM): 111%
residual activity ([1]; compound 10.0 µM): 80%
residual activity ([2]; compound 0.1 µM): 85%
residual activity ([2]; compound 1.0 µM): 70%
residual activity ([2]; compound 10.0 µM): 31%
Structure (SMILES): NC(=O)c1cc2c(-c3cccc(-c4ccccc4)c3)cnc(N)c2s1
